Experimental findings from US11976083B2, “Inhibitors of peptidylarginine deiminases” (Gilead Sciences, Inc., priority 2020, dated 2024) are described below.

This test deals with T1, human PAD4 (Homo sapiens, UniProt Q9UM07).
T1 construct: human PAD4 (NM_012387), A2-P663, was PCR amplified; His-SUMO (N, cleaved yes); made in house; host or cells: E. coli BL21(DE3)
Kind of test: In vitro PAD4 BAEE biochemical assay. The note with it: BAEE substrate 3 mM, 5 nM PAD4, 2 mM calcium chloride; geometric mean of multiple experiments. In outline:
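Recombinant PAD4 (5 nM final) with 2 mM CaCl2 was preincubated with compound for 30 min at 25 °C in MOPS pH 7.6 buffer with DTT, then reacted with 3 mM BAEE for 2 h at 25 °C. Released ammonia was detected fluorimetrically with o-phthalaldehyde/DTT; IC50 from four-parameter fit, geometric mean of experiments.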

T1 sequence (Q9UM07 2-663): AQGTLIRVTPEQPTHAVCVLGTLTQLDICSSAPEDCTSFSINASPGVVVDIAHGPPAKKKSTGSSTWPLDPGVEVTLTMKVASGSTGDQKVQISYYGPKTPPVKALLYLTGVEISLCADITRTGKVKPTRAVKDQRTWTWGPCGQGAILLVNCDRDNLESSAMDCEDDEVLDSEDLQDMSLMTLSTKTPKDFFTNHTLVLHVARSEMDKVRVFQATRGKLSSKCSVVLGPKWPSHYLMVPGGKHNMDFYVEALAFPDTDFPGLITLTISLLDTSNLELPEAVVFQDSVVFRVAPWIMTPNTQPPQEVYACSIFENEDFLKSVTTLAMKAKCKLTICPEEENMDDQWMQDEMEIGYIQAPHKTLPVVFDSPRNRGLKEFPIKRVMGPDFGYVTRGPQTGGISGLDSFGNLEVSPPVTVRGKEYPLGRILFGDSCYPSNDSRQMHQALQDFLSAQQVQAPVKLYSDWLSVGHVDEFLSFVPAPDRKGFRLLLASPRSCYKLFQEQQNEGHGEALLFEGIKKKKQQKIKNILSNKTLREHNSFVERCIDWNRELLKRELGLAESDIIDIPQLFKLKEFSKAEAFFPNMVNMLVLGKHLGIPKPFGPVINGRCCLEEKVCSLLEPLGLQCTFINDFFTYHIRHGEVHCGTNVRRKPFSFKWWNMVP

As a reminder, the IC50 is the concentration that inhibits the measured activity by half. As to `COc1cc(C(=O)N2CC[C@@H](OC)[C@@H](N)C2)cc2nc(-c3cc4ccc5nc4n3CC/C=C\C[C@H]3C[C@H]3C(=O)N[C@@H]5C)n(C)c12` [Example 517, (2~{R},5~{R},7~ {S},9~{Z})-14-[5-[(3~{S},4~{R})-3-amino-4-methoxy-piperidine-1-carbonyl]-7-methoxy-1-methyl-benzimidazol-2-yl]-2-methyl-3,13,19-triazatetracyclo[11.5.2.0^ {5,7}.0^{16,20}] icosa-1(19),9,14,16(20), 17-pentaen-4-one], the IC50 stood at 128 nM.

On to `C[C@H]1NC(=O)[C@@H]2C[C@H]2CCCCCn2c(-c3nc4cc(C(=O)N5[C@H]6CC[C@@H]5[C@H](N)C6)cnc4n3C)cc3ccc1nc32` [Example 563, (2~{R},5~{R},7~{R})-14-[6-[(1~{R},2~{R},4~ {S})-2-amino-7-azabicyclo [2.2.1]heptane-7-carbonyl]-3-methyl-imidazo[4,5-b]pyridin-2-yl]-2-methyl-3,13,19-triazatetracyclo [11.5.2.0^{5,7}.0^{16,20}] icosa-1(19),14,16(20), 17-tetraen-4-one], for which the half-maximal inhibitory concentration (IC50) was found to be 26 nM.

In the case of `COc1cc(C(=O)N2CCC[C@@H](N)C2)cc2nc(-c3cc4ccc5cc4n3CCCCCCC3(CC3)C(=O)N[C@@H]5C)n(C)c12` [Example 155, (11~{R})-17-[5-[(3~{R})-3-aminopiperidine-1-carbonyl]-7-methoxy-1-methyl-benzimidazol-2-yl]-11-methyl-spiro[1,10-diazatricyclo[10.5.2.0^{15,18}]nonadeca-12(19),13,15(18),16-tetraene-8,1′-cyclopropane]-9-one], the IC50 was found to be 77 nM.

Take `C[C@H]1NC(=O)[C@@H]2C[C@H]2CCCCCn2c(-c3nc4cc(C(=O)N[C@H]5CNCC[C@@H]5F)cnc4n3C)cc3ccc1nc32` [Example 188, ˜{N}-[(3˜{S},4˜{S})-4-fluoro-3-piperidyl]-3-methyl-2-[(2˜{R},5˜{R},7˜{R})-2-methyl-4-oxo-3,13,19-triazatetracyclo[11.5.2.0^{5,7}.0^{16,20}]icosa-1(19),14,16(20),17-tetraen-14-yl]imidazo[4,5-b]pyridine-6-carboxamide]: the IC50 was determined as 49 nM.

In the case of `COc1cc(C(=O)N2CCC[C@@H](N)C2)cc2nc(-c3cc4ccc5nc4n3CCCCC[C@@H](OC)C(C)(C)C(=O)N[C@@H]5C)n(C)c12` [Example 153, (7~{R},11~{R})-17-[5-[(3~{R})-3-aminopiperidine-1-carbonyl]-7-methoxy-1-methyl-benzimidazol-2-yl]-7-methoxy-8,8,11-trimethyl-1,10,19-triazatricyclo[10.5.2.0^{15,18}]nonadeca-12(19),13,15(18),16-tetraen-9-one], the IC50 is 116 nM.

On to `COc1cc(C(=O)N2C[C@H]3CC[C@@H]2[C@@H]3N)cc2nc(-c3cc4ccc5nc4n3CCCCCCCC(=O)N[C@@H]5C)n(C)c12` [Example 288, (11~{R})-17-[5-[(1~{R},4~{R},7~{R})-7-amino-2-azabicyclo[2.2.1]heptane-2-carbonyl]-7-methoxy-1-methyl-benzimidazol-2-yl]-11-methyl-1,10,19-triazatricyclo[10.5.2.0^{15,18}]nonadeca-12(19),13,15(18),16-tetraen-9-one], for which the IC50 amounted to 36 nM.

For `COc1cc(C(=O)N[C@H]2CNCC[C@@H]2F)cc2nc(-c3cc4ccc5nc4n3CCC/C=C/c3c(noc3C)C(=O)N[C@@H]5C)n(C)c12` [Example 399, 2-[(2~{R},10~{E})-2,8-dimethyl-4-oxo-7-oxa-3,6,15,21-tetrazatetracyclo[13.5.2.0^{5,9}.0^{18,22}]docosa-1(21),5,8,10,16,18(22),19-heptaen-16-yl]-~{N}-[(3~{S},4~{S})-4-fluoro-3-piperidyl]-7-methoxy-1-methyl-benzimidazole-5-carboxamide], the IC50 stood at 86 nM.

As for `COc1cc(C(=O)N2C[C@H](N)[C@@H]3CC[C@H]2C3)cc2nc(-c3cc4ccc5nc4n3CCCCCc3ccc(Cl)nc3C(=O)N[C@@H]5C)n(C)c12` [Example 954, (2~{R})-17-[5-[(1~{S},4~{R}, 5~{R})-4-amino-2-azabicyclo [3.2.1]octane-2-carbonyl]-7-methoxy-1-methyl-benzimidazol-2-yl]-7-chloro-2-methyl-3,6,16,22-tetrazatetracyclo[14.5.2.0^ {5,10}.0^{19,23}]tricosa-1(21),5(10),6,8,17,19,22-heptaen-4-one], the IC50 was 32 nM.

Turning to `COc1cc(C(=O)N2CC[C@@H](OC)[C@@H](N)C2)cc2nc(-c3cc4ccc5nc4n3CCCCCc3cccc(C(F)F)c3C(=O)N[C@@H]5C)n(C)c12` [Example 397, (2~{R})-17-[5-[(3~{S},4~{R})-3-amino-4-methoxy-piperidine-1-carbonyl]-7-methoxy-1-methyl-benzimidazol-2-yl]-6-(difluoromethyl)-2-methyl-3,16,22-triazatetracyclo[14.5.2.0^{5,10}.0^{19,23}] tricosa-1(22),5(10),6,8,17,19(23),20-heptaen-4-one], the IC50 is 91 nM.

`COc1cc(C(=O)N2CC[C@@H](OC)[C@@H](N)C2)cc2nc(-c3cc4ccc5nc4n3CCCCCC[C@@]3(CCCO3)C(=O)N[C@@H]5C)n(C)c12` [Example 687, (8~{R},11~{R})-17-[5-[(3~{S),4~{R})-3-amino-4-methoxy-piperidine-1-carbonyl]-7-methoxy-1-methyl-benzimidazol-2-yl]-11-methyl-spiro[1,10,19-triazatricyclo[10.5.2.0^ {15,18}]nonadeca-12(19),13,15(18),16-tetraene-8,2′-tetrahydrofuran]-9-one]: the half-maximal inhibitory concentration (IC50) stood at 64 nM.

As for `CO[C@@H]1CCN(C(=O)c2cc(F)c3c(c2)nc(-c2cc4ccc5nc4n2CC(F)(F)CCC[C@@H]2C[C@H]2C(=O)N[C@@H]5C)n3C)C[C@@H]1N` [Example 738, (2~{R},5~{R},7~{R})-14-[5-[(3~{S},4~{R})-3-amino-4-methoxy-piperidine-1-carbonyl]-7-fluoro-1-methyl-benzimidazol-2-yl]-11,11-difluoro-2-methyl-3,13,19-triazatetracyclo[11.5.2.0^ {5,7}.0^{16,20}] icosa-1(19),14,16(20), 17-tetraen-4-one], the IC50 was 48 nM.

Consider `C[C@@H]1[C@H](N)CCCN1C(=O)c1cc(F)c2c(c1)nc(-c1cc3ccc4nc3n1CCCCCc1nc3ccsc3cc1C(=O)N[C@@H]4C)n2C1CC1` [Example 796, (2~{R})-20-[5-[(2~{R},3~{R})-3-amino-2-methyl-piperidine-1-carbonyl]-1-cyclopropyl-7-fluoro-benzimidazol-2-yl]-2-methyl-8-thia-3,12,19,25-tetrazapentacyclo[17.5.2.0^ {5,13}.0^{7,11).0^{22,26}] hexacosa-1(24),5(13), 6,9,11,20,22,25-octaen-4-one], for which the IC50 was 5 nM.

Regarding `COc1cc(C(=O)N2CCC[C@@H](N)C2)cc2nc(-c3cc4ccc5nc4n3CCCCCOC(C)(C)C(=O)N[C@@H]5C)n(C)c12` [Example 18, (11~{R})-17-[5-[(3~{R})-3-aminopiperidine-1-carbonyl]-7-methoxy-1-methyl-benzimidazol-2-yl]-8,8,11-trimethyl-7-oxa-1,10,19-triazatricyclo[10.5.2.0^{15,18}]nonadeca-12(19),13,15(18),16-tetraen-9-one], the concentration for half-maximal inhibition (IC50) stood at 85 nM.

On to `COc1cc(C(=O)N2CCC[C@@H](N)C2)cc2nc(-c3cc4ccc5nc4n3C[C@H]3C[C@@H]3[C@H](C)OCCC(=O)N[C@@H]5C)n(C)c12` [Example 161, (3~{S},5~{S},6~{S},12~{R})-18-[5-[(3~{R})-3-aminopiperidine-1-carbonyl]-7-methoxy-1-methyl-benzimidazol-2-yl]-6,12-dimethyl-7-oxa-1,11,20-triazatetracyclo[11.5.2.0^{3,5}.0^{16,19}] icosa-13(20),14,16(19),17-tetraen-10-one], for which the IC50 stood at 108 nM.

On to `C[C@H]1NC(=O)c2cc(Cl)ncc2CCCCCn2c(-c3nc4cc(C(=O)N5C[C@H](N)[C@@H]6CC[C@H]5C6)cc(F)c4n3C3CC3)cc3ccc1nc32` [Example 672, (2~{R})-17-[5-[(1~{S},4~ {R},5~{R})-4-amino-2-azabicyclo[3.2.1]octane-2-carbonyl]-1-cyclopropyl-7-fluoro-benzimidazol-2-yl]-7-chloro-2-methyl-3,8,16,22-tetrazatetracyclo [14.5.2.0^{5,10}.0^{19,23}] tricosa-1(22),5(10),6,8,17,19 (23),20-heptaen-4-one], for which the IC50 worked out at 28 nM.

With `COc1cc(C(=O)N2CC[C@@H](OC)[C@@H](N)C2)cc2nc(-c3cc4ccc5nc4n3CC(F)(F)CCC[C@@H]3C[C@@]3(C)C(=O)N[C@@H]5C)n(C)c12` [Example 585, (2~{R},5~{R},7~{R})-14-[5-[(3~{S},4~{R})-3-amino-4-methoxy-piperidine-1-carbonyl]-7-methoxy-1-methyl-benzimidazol-2-yl]-11,11-difluoro-2,5-dimethyl-3,13,19-triazatetracyclo[11.5.2.0^ {5,7}.0^{16,20}]icosa-1(19),14,16(20),17-tetraen-4-one], the IC50 was found to be 74 nM.

As for `COc1cc(C(=O)N[C@H]2CNCC[C@@H]2F)cc2nc(-c3cc4ccc5nc4n3C[C@H]3[C@H](CCCC(C)(C)C(=O)N[C@@H]5C)C3(F)F)n(C)c12` (single isomer, unassigned) [Example 364, 2-[(3˜{R},5˜{S},12˜{R})-4,4-difluoro-9,9,12-trimethyl-10-oxo-1,11,20-triazatetracyclo[11.5.2.0^{3,5}.0^{16,19}]icosa-13(20),14,16(19),17-tetraen-18-yl]-˜{N}-[(3˜{S},4˜{S})-4-fluoro-3-piperidyl]-7-methoxy-1-methyl-benzimidazole-5-carboxamide], the 50% inhibitory concentration (IC50) is 203 nM.
